Assays:
[1] = target: T1, catalytic domain (JH1, amino acids 826-1132) of human JAK2 (Homo sapiens, UniProt O60674); assay: JAK2 LanthaScreen JH1 Binding Assay; conditions: 50 nM fluorescent JAK2-JH1 tracer, 2 hours at 25° C.; read-out: JH1 BIND (EX. A)
T1 construct: catalytic domain (JH1, amino acids 826-1132) of human JAK2; FLAG (N); purchased Carna Biosciences 08-445-20N; host or cells: baculovirus expression system
How it was run: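 FLAG-tagged biotinylated JAK2 JH1 (1.5 nM) was incubated 2 h at 25° C with compound, 50 nM fluorescent tracer and 0.5 nM Streptavidin-Tb in Tris pH 7.5 buffer. Tracer displacement read by TR-FRET; nonspecific binding defined with 2 mM ATP. IC50 from four-parameter fit.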

[2] = target: T2, pseudo-kinase domain (JH2, amino-acids 536-812) of human Wild Type JAK2 (Homo sapiens, UniProt O60674, F794H/W659A/W777A); assay: JAK2 LanthaScreen JH2-WT Binding Assay; conditions: 50 nM Fluorescent JAK2-JH2 Tracer, 1 hour at 25° C.; read-out: JH2 BIND WT (EX. B)
T2 construct: JH2, amino-acids 536-812 with 3 surface mutations W659A, W777A, F794H; His (C); purchased BPS Bioscience 79463; host or cells: baculovirus expression system
T2 sequence (O60674 536-812 W659A/W777A/F794H): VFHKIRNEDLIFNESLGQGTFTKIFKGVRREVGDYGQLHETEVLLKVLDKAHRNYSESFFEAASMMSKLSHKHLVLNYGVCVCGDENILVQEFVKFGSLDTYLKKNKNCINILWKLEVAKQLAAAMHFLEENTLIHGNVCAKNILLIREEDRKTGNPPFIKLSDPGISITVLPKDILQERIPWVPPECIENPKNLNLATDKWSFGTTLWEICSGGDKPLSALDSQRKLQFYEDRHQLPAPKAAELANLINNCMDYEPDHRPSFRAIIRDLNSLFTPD
How it was run: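 JH2 domain (0.145 nM; His-Avi-tagged, biotinylated, baculovirus-expressed) incubated 1 h at 25° C. with compounds, 50 nM fluorescent JH2 tracer and 0.25 nM streptavidin-Tb in pH 7.5 Tris buffer with MgCl2, EGTA, DTT. Non-specific binding defined with 2 mM ATP. TR-FRET tracer displacement read; IC50 from four-parameter fit.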

[3] = target: T3, catalytic domain (JH1, amino acids 808-1132) of human JAK2 (Homo sapiens, UniProt O60674); assay: JAK2 HTRF Enzyme Activity Assay; assay type: biochemical; conditions: ATP (30 μM or 1 mM; not stated which for the table), 60 minutes at 25° C.; read-out: JAK2 HTRF (Ex. D)
T3 construct: catalytic domain (JH1, amino acids 808-1132) of human JAK2; His (N); purchased BPS Bioscience 40450; host or cells: baculovirus expression system
T3 sequence (O60674 808-1132): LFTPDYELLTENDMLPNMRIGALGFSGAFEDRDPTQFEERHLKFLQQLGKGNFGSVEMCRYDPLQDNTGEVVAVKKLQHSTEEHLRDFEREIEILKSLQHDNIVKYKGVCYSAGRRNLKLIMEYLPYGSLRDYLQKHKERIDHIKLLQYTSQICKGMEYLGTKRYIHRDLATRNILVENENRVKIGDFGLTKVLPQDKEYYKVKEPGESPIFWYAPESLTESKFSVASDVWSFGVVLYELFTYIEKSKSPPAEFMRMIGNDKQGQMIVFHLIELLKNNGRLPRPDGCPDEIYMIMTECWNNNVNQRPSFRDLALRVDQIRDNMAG
How it was run: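 N-terminal His-tagged, baculovirus-expressed JH1 domain (0.015 nM) reacts 60 min at 25 °C with 500 nM biotinylated peptide and 30 μM or 1 mM ATP in Tris pH 7.5/10 mM MgCl2. Phosphorylation is detected by HTRF with Eu-anti-phosphotyrosine (PY20) and streptavidin-APC after EDTA stop. IC50 comes from four-parameter fits.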

[4] = target: T4, pseudo-kinase domain (JH2, amino-acids 536-812) of human V617F mutant JAK2 (Homo sapiens, UniProt O60674, F794H/V617F/W659A/W777A); assay: JAK2 LanthaScreen JH2-V617F Binding Assay; conditions: 50 nM Fluorescent JAK2-JH2 Tracer, 1 hour at 25° C.; read-out: JH2 BIND V617F (Ex. C)
T4 construct: JH2, amino-acids 536-812 with 3 surface mutations W659A, W777A, F794H; His (C); purchased BPS Bioscience 79498; host or cells: baculovirus expression system
T4 sequence (O60674 536-812 V617F/W659A/W777A/F794H): as the sequence (O60674 536-812 W659A/W777A/F794H) above, with V82F counted along it
How it was run: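 Biotinylated His-Avi-tagged JH2 construct (536-812, W659A/W777A/F794H) at 0.26 nM, with 50 nM fluorescent JH2 tracer and 0.25 nM streptavidin-Tb, in pH 7.5 Tris/MgCl2 buffer; 1 h at 25° C. Non-specific binding defined with 2 mM ATP. IC50 derived from TR-FRET signal by four-parameter dose-response fit.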

T1 sequence (O60674 826-1132): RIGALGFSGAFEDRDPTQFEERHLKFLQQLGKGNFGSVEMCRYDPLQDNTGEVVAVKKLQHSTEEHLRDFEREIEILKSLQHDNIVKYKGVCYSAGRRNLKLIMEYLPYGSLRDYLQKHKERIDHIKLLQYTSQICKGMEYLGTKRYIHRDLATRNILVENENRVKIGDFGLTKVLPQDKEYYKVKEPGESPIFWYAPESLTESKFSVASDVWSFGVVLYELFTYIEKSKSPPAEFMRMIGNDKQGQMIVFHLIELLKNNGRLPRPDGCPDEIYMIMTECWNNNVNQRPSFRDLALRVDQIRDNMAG

Row | Structure (SMILES) | IC50 [1] [nM] | IC50 [2] [nM] | IC50 [3] [nM] | IC50 [4] [nM]
1 | [2H]C([2H])([2H])n1c(=O)n([C@@H]2CC[C@@H](NC(=O)OC)C2)c2cc(Nc3cc([S+](C)[O-])c4cccc(C(F)(F)F)c4n3)ncc21 (stereo partly drawn) [Example 5, Methyl ((1R,3R)-3-(3-(methyl-d3)-6-((4-(methylsulfinyl)-8-(trifluoromethyl)quinolin-2-yl)amino)-2-oxo-2,3-dihydro-1H-imidazo[4,5-c]pyridin-1-yl)cyclopentyl)carbamate] | > 1000 | ≤ 10 | > 1000 | ≤ 10
2 | COC(=O)N[C@@H]1CC[C@@H](n2c(=O)n(C)c3cnc(Nc4ccc5cccc(C(F)(F)F)c5n4)cc32)C1 [Example 41, Methyl ((1R,3R)-3-(3-methyl-2-oxo-6-((8-(trifluoromethyl)quinolin-2-yl)amino)-2,3-dihydro-1H-imidazo[4,5-c]pyridin-1-yl)cyclopentyl)carbamate] | > 1000 | ≤ 10 | > 1000 | ≤ 10
3 | [2H]C([2H])([2H])n1c(=O)n([C@@H]2CC[C@@H](NC(=O)OC)C2)c2cc(Nc3ccc4ncc(C(C)C(F)(F)F)n4n3)ncc21 (stereo partly drawn) [Example 30, Methyl ((1R,3R)-3-(3-(methyl-d3)-2-oxo-6-((3-(1,1,1-trifluoropropan-2-yl)imidazo[1,2-b]pyridazin-6-yl)amino)-2,3-dihydro-1H-imidazo[4,5-c]pyridin-1-yl)cyclopentyl)carbamate] | > 1000 | ≤ 10 | > 1000 | ≤ 10
4 | [2H]C([2H])([2H])n1c(=O)n([C@@H]2CC[C@@H](NC(=O)OC)C2)c2cc(Nc3cc(S(C)(=O)=O)c4cccc(C(F)(F)F)c4n3)ncc21 [Example 6, Methyl ((1R,3R)-3-(3-(methyl-d3)-6-((4-(methylsulfonyl)-8-(trifluoromethyl)quinolin-2-yl)amino)-2-oxo-2,3-dihydro-1H-imidazo[4,5-c]pyridin-1-yl)cyclopentyl)carbamate] | > 1000 | ≤ 10 | > 1000 | ≤ 10
5 | [2H]C([2H])([2H])n1c(=O)n([C@@H]2CC[C@@H](NC(=O)OC)C2)c2cc(Nc3ccc4cccc([N+](=O)[O-])c4n3)ncc21 [Example 35, Methyl ((1R,3R)-3-(3-(methyl-d3)-6-((8-nitroquinolin-2-yl)amino)-2-oxo-2,3-dihydro-1H-imidazo[4,5-c]pyridin-1-yl)cyclopentyl)carbamate] | > 1000 | ≤ 10 | > 1000 | ≤ 10
6 | COC(=O)N[C@@H]1CC[C@@H](n2c(=O)n(C)c3cnc(Nc4ccc5ncc(C#N)n5n4)cc32)C1 [Example 42, Methyl ((1R,3R)-3-(6-((3-cyanoimidazo[1,2-b]pyridazin-6-yl)amino)-3-methyl-2-oxo-2,3-dihydro-1H-imidazo[4,5-c]pyridin-1-yl)cyclopentyl)carbamate] | > 1000 | ≤ 10 | > 1000 | ≤ 10
7 | [2H]C([2H])([2H])n1c(=O)n([C@@H]2CC[C@@H](NC(=O)OC)C2)c2cc(Nc3ccc4cc(C#N)cc(C(F)(F)F)c4n3)ncc21 [Example 26, Methyl ((1R,3R)-3-(6-((6-cyano-8-(trifluoromethyl)quinolin-2-yl)amino)-3-(methyl-d3)-2-oxo-2,3-dihydro-1H-imidazo[4,5-c]pyridin-1-yl)cyclopentyl)carbamate] | > 1000 | ≤ 10 | > 1000 | ≤ 10
8 | COC(=O)N[C@@H]1CC[C@@H](n2c(=O)n(C)c3cnc(Nc4ccc5cccc(C(F)F)c5n4)cc32)C1 [Example 38, Methyl ((1R,3R)-3-(6-((8-(difluoromethyl)quinolin-2-yl)amino)-3-methyl-2-oxo-2,3-dihydro-1H-imidazo[4,5-c]pyridin-1-yl)cyclopentyl)carbamate] | > 1000 | ≤ 10 | > 1000 | ≤ 10
9 | [2H]C([2H])([2H])n1c(=O)n([C@@H]2CC[C@@H](NC(=O)OC)C2)c2cc(Nc3ccc4cc(F)cc(C(F)(F)F)c4n3)ncc21 [Example 27, Methyl ((1R,3R)-3-(6-((6-fluoro-8-(trifluoromethyl)quinolin-2-yl)amino)-3-(methyl-d3)-2-oxo-2,3-dihydro-1H-imidazo[4,5-c]pyridin-1-yl)cyclopentyl)carbamate] | > 1000 | ≤ 10 | > 1000 | ≤ 10
10 | [2H]C([2H])([2H])n1c(=O)n([C@@H]2CC[C@@H](NC(=O)OC)C2)c2cc(Nc3cc(C(C)(C)OC)c4cccc(C(F)(F)F)c4n3)ncc21 [Example 17, Methyl ((1R,3R)-3-(6-((4-(2-methoxypropan-2-yl)-8-(trifluoromethyl)quinolin-2-yl)amino)-3-(methyl-d3)-2-oxo-2,3-dihydro-1H-imidazo[4,5-c]pyridin-1-yl)cyclopentyl)carbamate] | > 1000 | ≤ 10 | > 1000 | ≤ 10
11 | [2H]C([2H])([2H])n1c(=O)n([C@@H]2CC[C@@H](NC(=O)OCc3ccccc3)C2)c2cc(Nc3ccc4cccc(C(F)(F)F)c4n3)ncc21 [Example 8, Benzyl ((1R,3R)-3-(3-(methyl-d3)-2-oxo-6-((8-(trifluoromethyl)quinolin-2-yl)amino)-2,3-dihydro-1H-imidazo[4,5-c]pyridin-1-yl)cyclopentyl)carbamate] | > 1000 | 10 to 100 | > 1000 | 10 to 100
12 | COC(=O)N[C@H]1CC[C@H](n2c(=O)n(C)c3cnc(Nc4ccc5cccc(Cl)c5n4)cc32)C1 [Example 40, Methyl ((1S,3S)-3-(6-((8-chloroquinolin-2-yl)amino)-3-methyl-2-oxo-2,3-dihydro-1H-imidazo[4,5-c]pyridin-1-yl)cyclopentyl)carbamate] | > 1000 | ≤ 10 | > 1000 | 10 to 100
13 | [2H]C([2H])([2H])n1c(=O)n([C@@H]2CC[C@@H](NC(=O)OC)C2)c2cc(Nc3cc(C)c4cccc(C(F)(F)F)c4n3)ncc21 [Example 4, Methyl ((1R,3R)-3-(3-(methyl-d3)-6-((4-methyl-8-(trifluoromethyl)quinolin-2-yl)amino)-2-oxo-2,3-dihydro-1H-imidazo[4,5-c]pyridin-1-yl)cyclopentyl)carbamate] | > 1000 | ≤ 10 | > 1000 | ≤ 10
14 | [2H]C([2H])([2H])n1c(=O)n([C@@H]2CC[C@@H](NC(=O)OC)C2)c2cc(Nc3cc(NS(C)(=O)=O)c4cccc(C(F)(F)F)c4n3)ncc21 [Example 23, Methyl ((1R,3R)-3-(3-(methyl-d3)-6-((4-(methylsulfonamido)-8-(trifluoromethyl)quinolin-2-yl)amino)-2-oxo-2,3-dihydro-1H-imidazo[4,5-c]pyridin-1-yl)cyclopentyl)carbamate] | > 1000 | 10 to 100 | > 1000 | 10 to 100
15 | [2H]C([2H])([2H])n1c(=O)n([C@@H]2CC[C@@H](NC(=O)OC)C2)c2cc(Nc3cc(C(C)O)c4cccc(C(F)(F)F)c4n3)ncc21 (stereo partly drawn) [Example 2, Methyl ((1R,3R)-3-(6-((4-(1-hydroxyethyl)-8-(trifluoromethyl)quinolin-2-yl)amino)-3-(methyl-d3)-2-oxo-2,3-dihydro-1H-imidazo[4,5-c]pyridin-1-yl)cyclopentyl)carbamate] | > 1000 | ≤ 10 | > 1000 | ≤ 10
16 | [2H]C([2H])([2H])n1c(=O)n([C@@H]2CC[C@@H](NC(=O)OC)C2)c2cc(Nc3cc(NC(=O)COC)c4cccc(C(F)(F)F)c4n3)ncc21 [Example 22, Methyl ((1R,3R)-3-(6-((4-(2-methoxyacetamido)-8-(trifluoromethyl)quinolin-2-yl)amino)-3-(methyl-d3)-2-oxo-2,3-dihydro-1H-imidazo[4,5-c]pyridin-1-yl)cyclopentyl)carbamate] | > 1000 | ≤ 10 | > 1000 | ≤ 10
